# From ChEMBL document CHEMBL3769367, “Orexin Receptor Antagonists: New Therapeutic Agents for the Treatment of Insomnia” (J Med Chem, 2016)
# Assays:
# Rattus norvegicus [1] = assay: Effect on sleep parameter in po dosed rat by EEG analysis; format: functional
# Homo sapiens [2] = assay: Effect on sleep parameter in insomnia patient assessed as total sleep time at 80 mg, po measured on night 1 by polysomnography; format: functional
# Homo sapiens [3] = assay: Effect on sleep parameter in insomnia patient assessed as wake after sleep onset time at 20 mg, po measured on night 28 by polysomnography; format: functional
# [4] = Plasma protein binding in dog; format: ADME, cell-free, Canis lupus familiaris; settings: read-out: PPB (converted)
# Rattus norvegicus [5] = species on record: Rattus norvegicus; assay: Receptor occupancy at OX2R in rat brain assessed as drug level in plasma; format: functional
# [6] = Clearance in iv dosed rat; format: ADME, organism-based; settings: in vivo
# Canis familiaris = assay: Effect on sleep parameter in po dosed dog by EEG analysis; format: functional, Canis lupus familiaris
# Homo sapiens [7] = assay: Effect on sleep parameter in insomnia patient assessed as total sleep time at 80 mg, po measured on night 28 by polysomnography; format: functional
# [8] = Apparent permeability of the compound; format: physicochemical; settings: not told
# [9] = Tmax in human plasma; format: ADME, organism-based
# [10] = Terminal half life in human plasma; format: ADME, organism-based; settings: read-out: beta t1/2 (converted)
# Homo sapiens [11] = assay: Effect on sleep parameter in insomnia patient assessed as sleep efficiency at 10 mg, po measured on night 1 by polysomnography; format: functional
# Homo sapiens [12] = assay: Effect on sleep parameter in insomnia patient assessed as latency to persistent sleep time at 10 mg, po measured on night 1 by polysomnography; format: functional
# Homo sapiens [13] = assay: Effect on sleep parameter in insomnia patient assessed as wake after sleep onset time at 10 mg, po measured on night 1 by polysomnography; format: functional
# Homo sapiens [14] = assay: Effect on sleep parameter in insomnia patient assessed as total sleep time at 10 mg, po measured on night 1 by polysomnography; format: functional
# Homo sapiens [15] = assay: Effect on sleep parameter in insomnia patient assessed as sleep efficiency at 20 mg, po measured on night 1 by polysomnography; format: functional
# Homo sapiens [16] = assay: Effect on sleep parameter in insomnia patient assessed as latency to persistent sleep time at 20 mg, po measured on night 1 by polysomnography; format: functional
# Homo sapiens [17] = assay: Effect on sleep parameter in insomnia patient assessed as wake after sleep onset time at 20 mg, po measured on night 1 by polysomnography; format: functional
# Homo sapiens [18] = assay: Effect on sleep parameter in insomnia patient assessed as total sleep time at 20 mg, po measured on night 1 by polysomnography; format: functional
# Homo sapiens [19] = assay: Effect on sleep parameter in insomnia patient assessed as sleep efficiency at 40 mg, po measured on night 1 by polysomnography; format: functional
# Homo sapiens [20] = assay: Effect on sleep parameter in insomnia patient assessed as latency to persistent sleep time at 40 mg, po measured on night 1 by polysomnography; format: functional
# Homo sapiens [21] = assay: Effect on sleep parameter in insomnia patient assessed as wake after sleep onset time at 40 mg, po measured on night 1 by polysomnography; format: functional
# Homo sapiens [22] = assay: Effect on sleep parameter in insomnia patient assessed as total sleep time at 40 mg, po measured on night 1 by polysomnography; format: functional
# Homo sapiens [23] = assay: Effect on sleep parameter in insomnia patient assessed as sleep efficiency at 80 mg, po measured on night 1 by polysomnography; format: functional
# Homo sapiens [24] = assay: Effect on sleep parameter in insomnia patient assessed as latency to persistent sleep time at 80 mg, po measured on night 1 by polysomnography; format: functional
# Homo sapiens [25] = assay: Effect on sleep parameter in insomnia patient assessed as wake after sleep onset time at 80 mg, po measured on night 1 by polysomnography; format: functional
# Homo sapiens [26] = assay: Effect on sleep parameter in insomnia patient assessed as sleep efficiency at 10 mg, po measured on night 28 by polysomnography; format: functional
# Homo sapiens [27] = assay: Effect on sleep parameter in insomnia patient assessed as latency to persistent sleep time at 10 mg, po measured on night 28 by polysomnography; format: functional
# Homo sapiens [28] = assay: Effect on sleep parameter in insomnia patient assessed as wake after sleep onset time at 10 mg, po measured on night 28 by polysomnography; format: functional
# Homo sapiens [29] = assay: Effect on sleep parameter in insomnia patient assessed as total sleep time at 10 mg, po measured on night 28 by polysomnography; format: functional
# Homo sapiens [30] = assay: Effect on sleep parameter in insomnia patient assessed as sleep efficiency at 20 mg, po measured on night 28 by polysomnography; format: functional
# Homo sapiens [31] = assay: Effect on sleep parameter in insomnia patient assessed as latency to persistent sleep time at 20 mg, po measured on night 28 by polysomnography; format: functional
# Homo sapiens [32] = assay: Effect on sleep parameter in insomnia patient assessed as total sleep time at 20 mg, po measured on night 28 by polysomnography; format: functional
# Homo sapiens [33] = assay: Effect on sleep parameter in insomnia patient assessed as sleep efficiency at 40 mg, po measured on night 28 by polysomnography; format: functional
# Homo sapiens [34] = assay: Effect on sleep parameter in insomnia patient assessed as latency to persistent sleep time at 40 mg, po measured on night 28 by polysomnography; format: functional
# Homo sapiens [35] = assay: Effect on sleep parameter in insomnia patient assessed as wake after sleep onset time at 40 mg, po measured on night 28 by polysomnography; format: functional
# Homo sapiens [36] = assay: Effect on sleep parameter in insomnia patient assessed as total sleep time at 40 mg, po measured on night 28 by polysomnography; format: functional
# Homo sapiens [37] = assay: Effect on sleep parameter in insomnia patient assessed as sleep efficiency at 80 mg, po measured on night 28 by polysomnography; format: functional
# Homo sapiens [38] = assay: Effect on sleep parameter in insomnia patient assessed as latency to persistent sleep time at 80 mg, po measured on night 28 by polysomnography; format: functional
# Homo sapiens [39] = assay: Effect on sleep parameter in insomnia patient assessed as wake after sleep onset time at 80 mg, po measured on night 28 by polysomnography; format: functional
smiles,measurement,setting,value
Cc1ccc(-n2nccn2)c(C(=O)N2CCN(c3nc4cc(Cl)ccc4o3)CC[C@H]2C)c1 [SUVOREXANT],Activity,Rattus norvegicus [1],10 mg/kg
same,Time,Homo sapiens [2],61.9 min
same,Time,Homo sapiens [3],-28.1 min
same,fraction unbound,[4],0.01
same,Occ90,Rattus norvegicus [5],1070 nM
same,clearance,[6],44 mL/min/kg
same,Activity,Canis familiaris,3 mg/kg
same,Time,Homo sapiens [7],36.6 min
same,Papp,[8],37 ×10⁻⁶ cm/s
same,Tmax,[9],1.5 h
same,half-life,[10],8 h
same,Activity,Homo sapiens [11],5.2%
same,Time,Homo sapiens [12],-3.4 min
same,Time,Homo sapiens [13],-21.2 min
same,Time,Homo sapiens [14],25.1 min
same,Activity,Homo sapiens [15],7.6%
same,Time,Homo sapiens [16],-9.4 min
same,Time,Homo sapiens [17],-24.7 min
same,Time,Homo sapiens [18],36.2 min
same,Activity,Homo sapiens [19],10.8%
same,Time,Homo sapiens [20],-23.1 min
same,Time,Homo sapiens [21],-33.9 min
same,Time,Homo sapiens [22],52.4 min
same,Activity,Homo sapiens [23],12.9%
same,Time,Homo sapiens [24],-25.4 min
same,Time,Homo sapiens [25],-36.8 min
same,Activity,Homo sapiens [26],4.7%
same,Time,Homo sapiens [27],-2.3 min
same,Time,Homo sapiens [28],-21.4 min
same,Time,Homo sapiens [29],22.3 min
same,Activity,Homo sapiens [30],10.4%
same,Time,Homo sapiens [31],-22.3 min
same,Time,Homo sapiens [32],49.9 min
same,Activity,Homo sapiens [33],7.8%
same,Time,Homo sapiens [34],-3.8 min
same,Time,Homo sapiens [35],-33.2 min
same,Time,Homo sapiens [36],36.8 min
same,Activity,Homo sapiens [37],7.6%
same,Time,Homo sapiens [38],-9.5 min
same,Time,Homo sapiens [39],-28.9 min
